This is an account of results in ChEMBL document CHEMBL3751819, “Navigating into the chemical space between MGCD0103 and SAHA: novel histone deacetylase inhibitors as a promising lead” (Medchemcomm, 2015).

Data set [1] has as its system HeLa. Description: Induction of apoptosis in human HeLa cells assessed as viable cells at 2.5 uM after 48 hrs by annexin-V-FITC/propidium iodide staining based flow cytometry (reference value: 88.6%). Type of data set: functional. For orientation: In flow cytometry, cells or beads pass a laser one at a time.
In data set [2] the test system is HeLa. Description: Induction of apoptosis in human HeLa cells assessed as viable cells at 1.25 uM after 48 hrs by annexin-V-FITC/propidium iodide staining based flow cytometry (reference value: 88.6%). Type of data set: functional.
The subject of data set [3] is HeLa. Nature of the data set: Induction of apoptosis in human HeLa cells assessed as necrotic cells at 2.5 uM after 48 hrs by annexin-V-FITC/propidium iodide staining based flow cytometry (reference value: 0.693%). Type of data set: functional.
Data set [4] relates to HeLa. Nature of the data set: Induction of apoptosis in human HeLa cells assessed as early apoptotic cells at 1.25 uM after 48 hrs by annexin-V-FITC/propidium iodide staining based flow cytometry (reference value: 1.4%). Type of data set: functional.
Data set [5] can be described thus: Half life in mouse plasma. Type of data set: ADME, cell-free.
In data set [6] the test system is HeLa. Description: Induction of apoptosis in human HeLa cells assessed as late apoptotic cells at 2.5 uM after 48 hrs by annexin-V-FITC/propidium iodide staining based flow cytometry (reference value: 9.3%). Format: functional.
Data set [7] concerns HeLa. Nature of the data set: Induction of apoptosis in human HeLa cells assessed as necrotic cells at 1.25 uM after 48 hrs by annexin-V-FITC/propidium iodide staining based flow cytometry (reference value: 0.693%). Type of data set: functional.
Data set [8] deals with HeLa. Description: Induction of apoptosis in human HeLa cells assessed as early apoptotic cells at 2.5 uM after 48 hrs by annexin-V-FITC/propidium iodide staining based flow cytometry (reference value: 1.4%). Type of data set: functional.
For data set [9], the system named is HeLa. Description: Induction of apoptosis in human HeLa cells assessed as late apoptotic cells at 1.25 uM after 48 hrs by annexin-V-FITC/propidium iodide staining based flow cytometry (reference value: 9.3%). Format: functional.
The subject of data set [10] is HeLa. Nature of the data set: Induction of apoptosis in human HeLa cells assessed as late apoptotic cells at 5 uM after 48 hrs by annexin-V-FITC/propidium iodide staining based flow cytometry (reference value: 9.3%). Format: functional.
Data set [11] is described as follows: Half life in mouse microsomes. Format: ADME, Microsome.
A short description of data set [12]: Half life in artificial intestinal fluid. Type of data set: ADME.
The subject of data set [13] is HeLa. Nature of the data set: Induction of apoptosis in human HeLa cells assessed as early apoptotic cells at 5 uM after 48 hrs by annexin-V-FITC/propidium iodide staining based flow cytometry (reference value: 1.4%). Type of data set: functional.
Data set [14] relates to HeLa. Nature of the data set: Induction of apoptosis in human HeLa cells assessed as viable cells at 5 uM after 48 hrs by annexin-V-FITC/propidium iodide staining based flow cytometry (reference value: 88.6%). Type of data set: functional.
The test system of data set [15] is HeLa. Nature of the data set: Induction of apoptosis in human HeLa cells assessed as necrotic cells at 5 uM after 48 hrs by annexin-V-FITC/propidium iodide staining based flow cytometry (reference value: 0.693%). Format: functional.
For data set [16], the system named is A549. Nature of the data set: Antiproliferative activity against human A549 cells assessed as reduction in cell viability after 72 hrs by MTT assay. Type of data set: functional, cell-based. The following applies: A549, 72 h. In general terms: Tetrazolium assays rely on reduction of a dye to a coloured formazan, in cell work by metabolically active cells.
Data set [17] can be described thus: Half life in artificial gastric fluid. Type of data set: ADME.
Data set [18] is described as follows: Antiproliferative activity against human HCT116 cells assessed as reduction in cell viability after 72 hrs by MTT assay. Format: functional, cell-based. The following applies: HCT-116, 72 h.
Data set [19] relates to HeLa. Description: Antiproliferative activity against human HeLa cells assessed as reduction in cell viability after 24 hrs by MTT assay. Format: functional, cell-based.
The test system of data set [20] is HeLa. Nature of the data set: Antiproliferative activity against human HeLa cells assessed as reduction in cell viability after 48 hrs by MTT assay. Format: functional, cell-based.
Data set [21] can be described thus: Antiproliferative activity against human HCT116 cells assessed as reduction in cell viability after 48 hrs by MTT assay. Format: functional, cell-based. The following applies: HCT-116, 48 h.
In data set [22] the target is T1, Protein deacetylase HDAC6 (Homo sapiens) (UniProt Q9UBN7).
T1 sequence (whole entry): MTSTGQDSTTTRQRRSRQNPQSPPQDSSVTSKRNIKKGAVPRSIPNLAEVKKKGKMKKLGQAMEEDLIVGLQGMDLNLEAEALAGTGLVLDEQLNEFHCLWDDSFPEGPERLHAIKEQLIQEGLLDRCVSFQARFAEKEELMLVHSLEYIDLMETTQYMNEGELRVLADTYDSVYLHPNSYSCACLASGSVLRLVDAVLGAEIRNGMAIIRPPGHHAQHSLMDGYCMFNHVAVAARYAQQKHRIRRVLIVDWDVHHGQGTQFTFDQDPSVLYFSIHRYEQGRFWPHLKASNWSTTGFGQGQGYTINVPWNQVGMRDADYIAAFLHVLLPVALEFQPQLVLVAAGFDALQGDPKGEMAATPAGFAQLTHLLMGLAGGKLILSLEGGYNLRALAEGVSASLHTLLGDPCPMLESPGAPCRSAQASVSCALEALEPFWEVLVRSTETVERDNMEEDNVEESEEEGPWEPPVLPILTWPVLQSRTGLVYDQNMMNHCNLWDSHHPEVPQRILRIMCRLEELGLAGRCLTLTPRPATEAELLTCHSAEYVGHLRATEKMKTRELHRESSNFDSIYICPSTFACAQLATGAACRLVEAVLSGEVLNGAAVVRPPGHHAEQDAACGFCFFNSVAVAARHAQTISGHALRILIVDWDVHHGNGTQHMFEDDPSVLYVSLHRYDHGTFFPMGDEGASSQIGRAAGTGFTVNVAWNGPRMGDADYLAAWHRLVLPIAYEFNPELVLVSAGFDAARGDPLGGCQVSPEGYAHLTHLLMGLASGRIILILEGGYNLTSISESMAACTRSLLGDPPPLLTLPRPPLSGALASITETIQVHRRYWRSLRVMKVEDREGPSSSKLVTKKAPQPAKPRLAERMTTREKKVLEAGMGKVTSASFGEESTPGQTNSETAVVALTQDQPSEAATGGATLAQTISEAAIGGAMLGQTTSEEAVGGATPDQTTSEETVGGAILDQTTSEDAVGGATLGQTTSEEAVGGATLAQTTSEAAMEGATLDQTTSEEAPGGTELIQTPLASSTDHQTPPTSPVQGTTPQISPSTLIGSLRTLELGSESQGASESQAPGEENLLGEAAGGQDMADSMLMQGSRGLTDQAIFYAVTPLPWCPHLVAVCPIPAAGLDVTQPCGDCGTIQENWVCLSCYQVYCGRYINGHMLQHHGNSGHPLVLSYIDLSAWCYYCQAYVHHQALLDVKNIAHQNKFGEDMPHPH
Nature of the data set: Inhibition of HDAC6 in human A549 cells assessed as increase in acetylated tubulin expression at 5 uM incubated for 12 hrs by DAPI staining based immunofluorescence microscopy. Format: cell-based.

Data set [23] is described as follows: Antiproliferative activity against human HCT116 cells assessed as reduction in cell viability after 24 hrs by MTT assay. Format: functional, cell-based. The following applies: HCT-116, 24 h.
The subject of data set [24] is MCF7. Description: Antiproliferative activity against human MCF7 cells assessed as reduction in cell viability after 72 hrs by MTT assay. Format: functional, cell-based. The following applies: MCF7, 72 h.
The nature of data set [25]: Elimination half life in po dosed patient plasma by HPLC/MS analysis. Conditions: human, read-out: beta t1/2 (converted). Format: ADME, organism-based.
The test system of data set [26] is HepG2. Description: Antiproliferative activity against human HepG2 cells assessed as reduction in cell viability after 48 hrs by MTT assay. Format: functional, cell-based. The following applies: HepG2, 48 h.
Data set [27] deals with HepG2. Description: Antiproliferative activity against human HepG2 cells assessed as reduction in cell viability after 72 hrs by MTT assay. Type of data set: functional, cell-based. Conditions: HepG2, 72 h.
In data set [28] the test system is MCF7. Description: Antiproliferative activity against human MCF7 cells assessed as reduction in cell viability after 24 hrs by MTT assay. Conditions: MCF7, 24 h. Format: functional, cell-based.
Data set [29] concerns HepG2. Description: Antiproliferative activity against human HepG2 cells assessed as reduction in cell viability after 24 hrs by MTT assay. The following applies: HepG2, 24 h. Format: functional, cell-based.
The subject of data set [30] is HeLa. Nature of the data set: Antiproliferative activity against human HeLa cells assessed as reduction in cell viability after 72 hrs by MTT assay. Format: functional, cell-based.
Data set [31] relates to A549. Description: Antiproliferative activity against human A549 cells assessed as reduction in cell viability after 24 hrs by MTT assay. The following applies: A549, 24 h. Format: functional, cell-based.
Data set [32] relates to A549. Description: Antiproliferative activity against human A549 cells assessed as reduction in cell viability after 48 hrs by MTT assay. Type of data set: functional, cell-based. The following applies: A549, 48 h.
For data set [33], the system named is MCF7. Nature of the data set: Antiproliferative activity against human MCF7 cells assessed as reduction in cell viability after 48 hrs by MTT assay. Format: functional, cell-based. Conditions: MCF7, 48 h.
Where [34] appears, read: Homo sapiens, HeLa, 48 h, read-out: Activity.

Activity calls are given as the source filed them. The calls are words filed in the database; no cut-off is given here.

Take `O=C(CCCCCCC(=O)Nc1ccccc1)NO` [VORINOSTAT]: the Activity was 77.4% in the data set with HeLa [1]; 85.1% in the data set with HeLa [2]; 0.957% in the data set with HeLa [3]; 4.1% with HeLa [4]; 15.1% in the data set with HeLa [6]; 0.654% in the data set with HeLa [7]. Further, the Activity in the data set on HeLa [8] amounted to 6.56%; with HeLa [9] it was 10.2%; with HeLa [10], 7.6%; in the data set on HeLa [13], 7.84%; in the data set with HeLa [14] it was 83.9%; in the data set on HeLa [15], 0.61%. The half-life in data set [5] was 3 h; in [11] it was 1.33 h; in [12], more than 24 h.
One may read the IC50 as the concentration that gives 50% inhibition. As for `Nc1ccccc1NC(=O)c1ccc(CNc2nccc(-c3cccnc3)n2)cc1` [MOCETINOSTAT], the viability at 2.5 µM with HeLa [1] (setting [34]) came to 84.5%. Further, the viability at 1.25 µM with HeLa [2] (setting [34]) was 87.1%. The IC50 turned out to be 11.9 µM in the data set on A549 [16]; 3.51 µM in data set [18]; 43.8 µM in the data set with HeLa [19]; 3.32 µM with HeLa [20]; 1.24 µM in data set [21]; 29.7 µM in data set [23]. Besides, the 50% inhibitory concentration (IC50) with MCF7 [24] amounted to 2.49 µM; in the data set on HepG2 [26] it was 4.05 µM; in the data set with HepG2 [27] it was 4.25 µM; in the data set on MCF7 [28] it was 84.2 µM; in the data set on HepG2 [29] it was 5.79 µM; with HeLa [30] it was 3.42 µM. In addition, the half-maximal inhibitory concentration (IC50) in the data set on A549 [31] turned out to be 59.9 µM; with A549 [32] it was 14.6 µM; in the data set on MCF7 [33], 56.8 µM. Besides, the Activity in the data set with HeLa [3] was 0.437%; in the data set on HeLa [4] it was 3.9%; with HeLa [6], 5.98%; with HeLa [7] it was 0.78%; with HeLa [8] it was 9.13%; in the data set on HeLa [9], 8.23%. For the same molecule, the Activity in the data set on HeLa [10] is recorded as 11.6%; in the data set with HeLa [13], 12.5%; with HeLa [15], 1.33%. For the same molecule, the half-life in [17] was more than 24 h; in data set [5] it was 10 h; in data set [25] it was 9 h; in [11], 2.62 h; in [12], more than 24 h. In data set [22], the inhibition result is “inactive”. Further, the viability at 5 µM in the data set on HeLa [14] (setting [34]) amounted to 74.6%.
